Test results reported in patent US20210046109A1, “Suppressive Exosomes in Cancer and for Immunosuppression” (The Regents of the University of California, priority 2018, published 2021).
Peptide text beside a SMILES is read from it. * marks the point of attachment. Cbz = O=C(OCc1ccccc1)*

What was measured:
PC3 and SK-MEL-28 cells = assay: Lysosome / proteasome inhibition, western analysis of PD-L1 protein levels; format: cell-based; details: for PD-L1 protein levels: both lines
Description: Next, potential differences in protein degradation were evaluated. The two main pathways for protein degradation are the lysosome and the proteasome. The small molecule Bafalomycin A1 (BafA1) inhibits lysosomal activity by blocking the V-ATPase hydrogen pump and thus acidification of the lysosome. An increase in the protein LC3B, a known target of the lysosome, confirmed effectiveness of the small molecule on PC3 and SK-MEL-28 cells. However, levels of PD-L1 in both lines were unaltered, implying little turnover of PD-L1 by the lysosome in these cells. The small molecule MG132 suppresses proteasome activity by blocking the 26s proteasome complex and consequentially proteolysis. The proteasome recognizes ubiquitin side chains on its targets. An increase in the presence of ubiquitinated proteins confirmed the effectiveness of MG132 on the two cells lines.

cancer cells = assay: IFNγ treatment of cancer cells, PD-L1 in cellular and 100 k g fractions and vesicle number; format: cell-based
From the text: In vivo, tumor cells can mediate adaptive resistance by up-regulating PD-L1 in response to interferon-gamma (IFNγ) released by the cytotoxic T lymphocytes within the tumor bed. Therefore, it was explored whether, in addition to up-regulating cellular PD-L1, IFNγ may increase the secretion of PD-L1. Treatment of cancer cells with IFNγ led to an increase in PD-L1 in both the cellular and 100 k g fractions. […] Thus, similar to the cell surface membrane PD-L1, extracellular vesicular PD-L1 increased in response to IFNγ.

CO/C1=C\C(C)=C\[C@@H](C)[C@@H](O)[C@@H](C)C/C(C)=C/C=C/[C@H](OC)[C@@H]([C@@H](C)[C@@H](O)[C@H](C)[C@@]2(O)C[C@@H](O)[C@H](C)[C@@H](C(C)C)O2)OC1=O [BafA1, Bafalomycin A1]
protein LC3B, known target of the lysosome (PC3 and SK-MEL-28 cells; PC3 and SK-MEL-28 cells): increase | PD-L1 protein levels (PC3 and SK-MEL-28 cells; PC3 and SK-MEL-28 cells): unaltered

CC(C)C[C@@H](C=O)NC(=O)[C@H](CC(C)C)NC(=O)[C@H](CC(C)C)NC(=O)OCc1ccccc1 [MG132] (Cbz-Leu-Leu-Leu-aldehyde)
presence of ubiquitinated proteins (PC3 and SK-MEL-28 cells; PC3 and SK-MEL-28 cells): increase | PD-L1 protein levels (PC3 and SK-MEL-28 cells; PC3 and SK-MEL-28 cells): minimally affected | PD-L1 levels (PC3 and SK-MEL-28 cells; SK-MEL-28 cells only, not PC3): slightly up

interferon-gamma [IFNγ, interferon-gamma released by cytotoxic T lymphocytes]
PD-L1 in both the cellular and 100 k g fractions (cancer cells): increase | number of vesicles secreted (cancer cells): did not increase
